Test results from PMC8617944, “Preclinical Pharmacokinetics and Acute Toxicity in Rats of 5-{[(2E)-3-Bromo-3-carboxyprop-2-enoyl]amino}-2-hydroxybenzoic Acid: A Novel 5-Aminosalicylic Acid Derivative with Potent Anti-Inflammatory Activity” (Molecules, 2021).
Entries after “also recorded” stand apart in the source; their conditions may differ. Read-outs that look alike come from different tables or passages of the source.

Legend:
[1] = Pharmacokinetic profiles after p.o., i.p. and i.v. administration; assay type: in vivo, Wistar rats; conditions: for absorption half-life: read-out: t1/2a, absorption half-life (converted); for Cmax: read-out: Cmax, maximum plasma concentration; for k el: read-out: Ke, elimination rate constant (converted); for MRT: read-out: MRT, mean residence time; for Tmax: read-out: tmax, time to maximum plasma concentration (converted); for Ka, absorption rate constant: non-compartmental
Procedure: On the same day as C1 administration, the rats (three groups, n = 6) were previously cannulated for compound administration by the p.o., i.p., and i.v. routes. A 24 G catheter was placed in the right lateral tail vein for blood collection. A first group of rats received a single dose of 50 mg/kg applied p.o. with a 20 G gavage needle. A dose of 75 mg/kg of C1 was injected i.p. into the rats in the second group. A single dose of 50 mg/kg was given i.v. to the third group by means of another catheter previously placed in the left lateral tail vein. The doses used in this study were selected based on previous pharmacokinetic studies reported in rats for 5-ASA [60] or for derivatives of this compound [61]. Animals were provided with the standard diet 4 h after dosing. […] The volume of blood removed was supplemented with an equal volume of 0.9% sodium chloride solution. The blood samples were centrifuged at 8000 rpm for 15 min to harvest 100 μL of plasma.
Plasma samples were processed immediately. Briefly, 450 µL of acetonitrile was added to 100 µL of plasma and vortexed for 5 min. Subsequently, 450 µL of methanol was added, and the sample was vortexed again, followed by centrifugation to precipitate the proteins. Finally, 10 µL of the supernatant were used for evaluation of the plasma concentration of C1 by RP-HPLC with the UV detection method, previously validated for the pharmacokinetic and complementary assays herein performed.
The plasma concentration–time data were plotted. […] Pharmacokinetic parameters of C1 were calculated on Kinetica 5.0 software (Adept Scientific Ltd), including the maximum plasma concentration (Cmax), time to maximum plasma concentration (tmax), elimination half-life (t1/2e), the area under the plasma concentration-time curve from time zero to the last measurable concentration (AUC0-t), the area under the plasma concentration-time curve from time zero to infinity (AUCtot), mean residence time (MRT), clearance (CL), and apparent volume of distribution (Vd).

[2] = test system: 12-O-tetradecanoylphorbol acetate (TPA)-induced mouse ear edema; parameters: method as in ref 32, 33 = [32]; doi:10.1016/j.arabjc.2016.12.026; 32. Cabrera Pérez L.C. Gutiérrez Sánchez M. Mendieta Wejebe J.E. Hernández Rodríguez M. Fragoso Vázquez M.J. Salazar J.R. Correa Basurto J. Padilla Martínez I.I. Rosales Hernández M.C. Novel 5-aminosa || [33]; 33. Correa Basurto J. Rosales Hernández M.C. Mendieta Wejebe J.E. Trujillo Ferrara J.G. Padilla Martínez I.I. Ramírez Durán L.A. Alemán González Duhart D. Síntesis de un derivado del ácido 5-aminosali; conditions: cited from earlier work
[3] = Plasma protein binding assay (ultrafiltration, RP-HPLC); assay type: in vitro ADME, Wistar rats; conditions: rat plasma
Procedure: Different quantities of C1 stock solution at 10 mg/mL were spiked into 600 µL of freshly obtained blank rat plasma to give a final concentration of 1, 5, 10, and 20 µg/mL. The resulting samples were incubated at 37 °C for 4 h. After incubation, an aliquot of 100 µL was removed to determine the total concentration, and another aliquot of 500 µL was transferred to a 10 kD cut-off ultrafiltration device (Millipore Corporation, Burlington, MA, USA). Subsequently, samples were centrifuged at 2000× g and 37 °C for 2 h. The free drug concentration of C1 was measured by evaluating 100 µL of ultrafiltrate with RP-HPLC, interpolating the main areas of the samples into a standard curve constructed with known amounts of C1. The percentage of protein binding was calculated with the following formula (1). Protein binding ratio (%) = […](1)

[4] = Wistar, rat, plasma, ip, 75 mg/kg, i.p. 75 mg/kg, n = 6
[5] = Wistar, rat, plasma, ip, 75 mg/kg, plasma, i.p. 75 mg/kg, n = 6, read-out: Average Concentration
[6] = Wistar, rat, plasma, ip, 75 mg/kg, plasma, i.p. 75 mg/kg, individual rats, read-out: Concentration (µg/mL), Rat 1-6
[7] = Wistar, rat, plasma, ip, i.p. 75 mg/kg, rats
[8] = Wistar, rat, plasma, iv, 50 mg/kg, i.v. 50 mg/kg, n = 6
[9] = Wistar, rat, plasma, iv, 50 mg/kg, plasma, i.v. 50 mg/kg, n = 6, read-out: Average Concentration
[10] = Wistar, rat, plasma, iv, 50 mg/kg, plasma, i.v. 50 mg/kg, individual rats, read-out: Concentration (µg/mL), Rat 1-6
[11] = Wistar, rat, plasma, iv, i.v. 50 mg/kg, rats
[12] = Wistar, rat, plasma, po, 50 mg/kg, i.g. (p.o.) 50 mg/kg, n = 6
[13] = Wistar, rat, plasma, po, 50 mg/kg, plasma, i.g. (p.o.) 50 mg/kg, individual rats, read-out: Concentration (µg/mL), Rat 1-6
[14] = Wistar, rat, plasma, po, 50 mg/kg, plasma, i.g. (p.o.) 50 mg/kg, n = 6, read-out: Average Concentration
[15] = Wistar, rat, plasma, po, p.o. 50 mg/kg, rats
[16] = two-compartment model, Kinetica 5.0

O=C(/C=C(/Br)C(=O)O)Nc1ccc(O)c(C(=O)O)c1 [Compound C1, 5-{[(2E)-3-bromo-3-carboxyprop-2-enoyl]amino}-2-hydroxybenzoic acid]
concentration at 5 min [1, 4]: 15900 ng/mL | concentration at 10 min [1, 4]: 17600 ng/mL | concentration at 30 min [1, 4]: 19900 ng/mL | concentration at 45 min [1, 4]: 17700 ng/mL | concentration at 60 min [1, 4]: 15200 ng/mL | concentration at 90 min [1, 4]: 11200 ng/mL | concentration at 120 min [1, 4]: 9000 ng/mL | concentration at 180 min [1, 4]: 5200 ng/mL | concentration at 240 min [1, 4]: 2900 ng/mL | absorption half-life ([1]; Wistar, rat, plasma, ip, 75 mg/kg, i.p. 75 mg/kg, rats): 1.3 ± 0.5 h | half-life ([1]; Wistar, rat, plasma, ip, 75 mg/kg, i.p. 75 mg/kg, rats, read-out: t1/2e, elimination half-life (converted)): 1.4 ± 0.2 h | concentration at 20 min [1, 5]: 19.8 µg/mL | concentration at 300 min [1, 6]: 0 µg/mL | concentration at 300 min [1, 5]: 0 µg/mL | concentration at 360 min [1, 6]: 0 µg/mL | concentration at 360 min [1, 5]: 0 µg/mL | concentration at 540 min [1, 6]: 0 µg/mL | concentration at 540 min [1, 5]: 0 µg/mL | concentration at 720 min [1, 6]: 0 µg/mL | concentration at 720 min [1, 5]: 0 µg/mL | Cmax [1, 7]: 22000 ± 1000 ng/mL | k el [1, 7]: 0.000139 s⁻¹ | MRT [1, 7]: 3.1 ± 0.9 h | Tmax [1, 7]: 0.55 h | concentration at 5 min [1, 8]: 10500 ng/mL | concentration at 10 min [1, 8]: 7800 ng/mL | concentration at 30 min [1, 8]: 5300 ng/mL | concentration at 45 min [1, 8]: 4200 ng/mL | concentration at 60 min [1, 8]: 4000 ng/mL | concentration at 90 min [1, 8]: 3400 ng/mL | concentration at 120 min [1, 8]: 2200 ng/mL | concentration at 180 min [1, 8]: 1500 ng/mL | concentration at 240 min [1, 8]: 1400 ng/mL | half-life ([1]; Wistar, rat, plasma, iv, 50 mg/kg, i.v. 50 mg/kg, rats, read-out: t1/2e, elimination half-life (converted)): ~0.9 h | concentration at 20 min [1, 9]: 6 µg/mL | concentration at 300 min [1, 9]: 1.2 µg/mL | concentration at 360 min [1, 9]: 0.756 µg/mL | concentration at 540 min [1, 10]: 0 µg/mL | concentration at 540 min [1, 9]: 0 µg/mL | concentration at 720 min [1, 10]: 0 µg/mL | concentration at 720 min [1, 9]: 0 µg/mL | clearance ([1]; Wistar, rat, plasma, iv, i.v. 50 mg/kg, rats, read-out: CL, clearance): 24 ± 5 mL/min | C0 ([1]; Wistar, rat, plasma, iv, i.v. 50 mg/kg, rats, read-out: Cp^0, initial plasma concentration): 11000 ± 1900 ng/mL | k el [1, 11]: 0.000222 s⁻¹ | MRT [1, 11]: 1.7 ± 0.4 h | Vd ([1]; Wistar, rat, plasma, iv, i.v. 50 mg/kg, rats, read-out: Vd, volume of distribution): 5.2 ± 0.9 L/kg | bioavailability ([1]; Wistar, rat, plasma, oral, 50 mg/kg, p.o. 50 mg/kg vs i.v. 50 mg/kg, rats, read-out: absolute oral bioavailability): ~77% | concentration at 5 min [1, 12]: 2200 ng/mL | concentration at 10 min [1, 12]: 2200 ng/mL | concentration at 30 min [1, 12]: 2500 ng/mL | concentration at 45 min [1, 12]: 2100 ng/mL | concentration at 60 min [1, 12]: 2100 ng/mL | concentration at 90 min [1, 12]: 1800 ng/mL | concentration at 120 min [1, 12]: 1500 ng/mL | concentration at 180 min [1, 12]: 1000 ng/mL | concentration at 240 min [1, 12]: 665 ng/mL | absorption half-life ([1]; Wistar, rat, plasma, po, 50 mg/kg, p.o. 50 mg/kg, rats): 1.4 ± 0.3 h | half-life ([1]; Wistar, rat, plasma, po, 50 mg/kg, p.o. 50 mg/kg, rats, read-out: t1/2e, elimination half-life (converted)): > 2.5 h | concentration at 20 min [1, 13]: 2.2 µg/mL | concentration at 20 min [1, 14]: 2.6 µg/mL | concentration at 300 min [1, 14]: 0.5 µg/mL | concentration at 360 min [1, 14]: 0.34 µg/mL | concentration at 540 min [1, 14]: 0.136 µg/mL | concentration at 600 min [1, 13]: 0 µg/mL | concentration at 600 min [1, 14]: 0 µg/mL | concentration at 720 min [1, 13]: 0 µg/mL | concentration at 720 min [1, 14]: 0 µg/mL | Cmax [1, 15]: 2800 ± 100 ng/mL | k el [1, 15]: 0.000111 s⁻¹ | MRT [1, 15]: 1.7 ± 0.2 h | Tmax [1, 15]: 0.55 h | half-life ([1]; Wistar, rat, plasma, two-compartment model, Kinetica 5.0, read-out: elimination half-life α (t1/2α)): 0.267 h | half-life ([1]; Wistar, rat, plasma, two-compartment model, Kinetica 5.0, read-out: elimination half-life β (t1/2β) (converted)): 3 h | AUCtot, area under the plasma concentration-time curve from time zero to infinity ([1]; i.p. 75 mg/kg, rats): 2780 ± 69 µg·min/mL | Ka, absorption rate constant ([1]; i.p. 75 mg/kg, rats): 1.4 ± 0.2 h⁻¹ | AUCtot, area under the plasma concentration-time curve from time zero to infinity ([1]; i.v. 50 mg/kg, rats): 806 ± 72 µg·min/mL | AUCtot, area under the plasma concentration-time curve from time zero to infinity ([1]; p.o. 50 mg/kg, rats): 618 ± 63 µg·min/mL | Ka, absorption rate constant ([1]; p.o. 50 mg/kg, rats): 0.9 ± 0.1 h⁻¹ | t1/2e, elimination half-life ([1]; p.o. 50 mg/kg, rats, 50 mg/kg): 2.5 ± 0.6 h | K12 [1, 16]: 0.018 min⁻¹ | K21 [1, 16]: 0.019 min⁻¹ | α [1, 16]: 0.042 min⁻¹ | anti-inflammatory activity [2]: anti-inflammatory agent in mice; also recorded: comparable to that of indomethacin; also recorded: exhibited anti-inflammatory activity | fraction unbound at 4 h, 1 µg/mL ([3]; Wistar, 1 µg/mL, read-out: Percentage of Unbound Fraction ± SD (%)): 0.963 ± 0.014 | fraction unbound at 4 h, 5 µg/mL ([3]; Wistar, 5 µg/mL, read-out: Percentage of Unbound Fraction ± SD (%)): 0.942 ± 0.024 | fraction unbound at 4 h, 10 µg/mL ([3]; Wistar, 10 µg/mL, read-out: Percentage of Unbound Fraction ± SD (%)): 0.934 ± 0.015 | fraction unbound at 4 h, 20 µg/mL ([3]; Wistar, 20 µg/mL, read-out: Percentage of Unbound Fraction ± SD (%)): 0.948 ± 0.023 | fraction unbound at 4 h ([3]; Wistar, 1 to 20 μg/mL): 0.934 to 0.963 | Percentage of Bound Fraction ± SD (%) ([3]; 1 µg/mL): 3.7 ± 1.1% | Percentage of Bound Fraction ± SD (%) ([3]; 5 µg/mL): 5.8 ± 2.4% | Percentage of Bound Fraction ± SD (%) ([3]; 10 µg/mL): 6.6 ± 1.5% | Percentage of Bound Fraction ± SD (%) ([3]; 20 µg/mL): 5.2 ± 2.3%
